Read-outs that look alike come from different tables or passages of the source.
Assays:
[1] = test system: solid tumor cancers (colorectal, pancreatic, ovarian, and prostate); conditions: cited from earlier work
MMP-1 = molecular target: T1, MMP-1 (Homo sapiens, UniProt P03956); assay: MMP-1 inhibition (in vitro Ki); format: biochemical
T1 construct: made in house; host or cells: MMP-1-transfected HT-1080 cells (spent media)
T1 sequence (P03956 100-469): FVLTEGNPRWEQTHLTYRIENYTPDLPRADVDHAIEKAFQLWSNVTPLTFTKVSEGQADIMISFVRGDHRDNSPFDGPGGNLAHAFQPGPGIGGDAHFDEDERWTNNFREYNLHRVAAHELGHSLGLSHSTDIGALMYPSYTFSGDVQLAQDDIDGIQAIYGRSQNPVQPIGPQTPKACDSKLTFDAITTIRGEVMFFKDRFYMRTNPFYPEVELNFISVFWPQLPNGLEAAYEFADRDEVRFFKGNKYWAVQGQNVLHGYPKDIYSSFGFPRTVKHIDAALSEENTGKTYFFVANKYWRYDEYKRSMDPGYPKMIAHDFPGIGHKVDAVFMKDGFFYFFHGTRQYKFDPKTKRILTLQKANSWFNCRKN

MMP-2 = molecular target: T2, MMP-2 (Homo sapiens, UniProt P08253); assay: MMP-2 inhibition (in vitro Ki); format: biochemical
T2 construct: made in house; host or cells: MMP-2-transfected p2AHT2 cells
T2 sequence (P08253 110-660): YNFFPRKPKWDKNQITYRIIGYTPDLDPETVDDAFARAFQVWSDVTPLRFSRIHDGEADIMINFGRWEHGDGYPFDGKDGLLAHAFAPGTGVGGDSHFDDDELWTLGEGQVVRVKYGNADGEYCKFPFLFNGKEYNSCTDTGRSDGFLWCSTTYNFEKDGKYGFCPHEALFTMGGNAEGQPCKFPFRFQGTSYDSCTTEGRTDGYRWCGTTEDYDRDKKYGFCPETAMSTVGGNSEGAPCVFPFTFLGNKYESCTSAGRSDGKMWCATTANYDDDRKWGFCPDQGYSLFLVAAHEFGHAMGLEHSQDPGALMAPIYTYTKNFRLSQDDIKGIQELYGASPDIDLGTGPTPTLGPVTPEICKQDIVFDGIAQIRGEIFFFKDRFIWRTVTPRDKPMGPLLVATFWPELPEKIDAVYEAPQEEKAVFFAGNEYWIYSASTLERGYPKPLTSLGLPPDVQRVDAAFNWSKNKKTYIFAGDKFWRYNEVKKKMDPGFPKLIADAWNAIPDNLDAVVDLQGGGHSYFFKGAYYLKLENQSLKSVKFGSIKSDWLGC

MMP-9 = molecular target: T3, MMP-9 (Homo sapiens, UniProt P14780); assay: MMP-9 inhibition (in vitro Ki); format: biochemical
T3 construct: made in house; host or cells: MMP-9-transfected HT1080 cells (spent media)
T3 sequence (P14780 107-707 limits assumed): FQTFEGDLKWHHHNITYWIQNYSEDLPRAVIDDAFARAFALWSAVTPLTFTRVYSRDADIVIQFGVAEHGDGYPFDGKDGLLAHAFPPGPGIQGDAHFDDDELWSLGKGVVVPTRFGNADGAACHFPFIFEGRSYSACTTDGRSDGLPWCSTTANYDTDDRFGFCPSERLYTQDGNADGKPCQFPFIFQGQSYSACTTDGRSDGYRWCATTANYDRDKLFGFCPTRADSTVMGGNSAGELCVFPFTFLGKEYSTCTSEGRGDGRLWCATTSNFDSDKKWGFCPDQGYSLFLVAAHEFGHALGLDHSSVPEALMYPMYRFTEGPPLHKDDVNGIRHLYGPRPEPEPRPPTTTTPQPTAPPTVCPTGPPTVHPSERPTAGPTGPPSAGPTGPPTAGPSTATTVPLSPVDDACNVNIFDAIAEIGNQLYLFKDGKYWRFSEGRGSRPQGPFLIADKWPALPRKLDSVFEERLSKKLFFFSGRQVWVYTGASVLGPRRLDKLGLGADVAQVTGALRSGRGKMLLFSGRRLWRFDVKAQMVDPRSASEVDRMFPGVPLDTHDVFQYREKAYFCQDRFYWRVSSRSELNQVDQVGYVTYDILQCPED

MMP-13 = molecular target: T4, MMP-13 (Homo sapiens, UniProt P45452); assay: MMP-13 inhibition (in vitro Ki); format: biochemical
T4 construct: made in house; host or cells: baculovirus / insect cells

MMP-14 = molecular target: T5, MMP-14 (Homo sapiens, UniProt P50281); assay: MMP-14 inhibition (in vitro Ki); format: biochemical
T5 construct: The catalytic domain enzyme was expressed in E. coli inclusion bodies, solubilized in urea; made in house

[2] = Table 9, read-out: MMP-1 Ki (IC-50)
[3] = Table 9, read-out: MMP-2 Ki (IC-50)
[4] = Table 9, read-out: MMP-9 Ki (IC-50)
[5] = Table 9, read-out: MMP-13 Ki (IC-50)
[6] = Table 9, read-out: MMP-14 Ki (IC-50)

Compound	Ki (MMP-1; [2]) [nM]	Ki (MMP-2; [3]) [nM]	Ki (MMP-9; [4]) [nM]	Ki (MMP-13; [5]) [nM]	Ki (MMP-14; [6]) [nM]	other results
CNC(=O)[C@@H](NC(=O)[C@H](CC(C)C)[C@H](O)C(=O)NO)C(C)(C)C [Marimastat]						most common drug-related toxicity ([1]; clinical trials in patients): musculoskeletal pain and stiffness; effect on cancer-specific antigens used as surrogate markers for biological activity ([1]; patients with advanced, rapidly progressive, treatment-refractory solid tumor cancers): dose-related reduction in the rise of cancer-specific antigens
O=C(CCCCC1CCN(S(=O)(=O)C2(C(=O)NO)CCOCC2)CC1)N1CCc2ccccc21 [Example B1, (4-({4-[5-(2,3-dihydro-1H-indol-1-yl)-5-oxopentyl]piperidin-1-yl}sulfonyl)-N-hydroxytetrahydro-2H-pyran-4-carboxamide)]						Ki (MMP-1; Table 10, read-out: MMP-1 Ki): 482 nM; Ki (MMP-2; Table 10, read-out: MMP-2 Ki): 30.7 nM; Ki (MMP-9; Table 10, read-out: MMP-9 Ki): 380 nM; Ki (MMP-13; Table 10, read-out: MMP-13 Ki): 0.229 nM; Ki (MMP-14; Table 10, read-out: MMP-14 Ki): > 10000 nM
COCC#Cc1ccc(C2CCN(S(=O)(=O)C3(C(=O)NO)CCOCC3)CC2)nc1 [Example A171]	4180	0.42	0.54	0.31	604	
O=C(NO)C1(S(=O)(=O)N2CCC(OCCCCCC(F)(F)F)CC2)CCOCC1 [Example A49, 4-[4-(6,6,6-trifluoro-hexyloxy)-piperidine-1-sulfonyl]-tetrahydro-pyran-4-carboxylic Acid Hydroxyamide]						Ki (MMP-1; Table 8, read-out: MMP-1 Ki): > 10000 nM; Ki (MMP-2; Table 8, read-out: MMP-2 Ki): 3.81 nM; Ki (MMP-9; Table 8, read-out: MMP-9 Ki): 3.1 nM; Ki (MMP-13; Table 8, read-out: MMP-13 Ki): 2.87 nM; Ki (MMP-14; Table 8, read-out: MMP-14 Ki): 6740 nM
O=C(NO)C1(S(=O)(=O)N2CCC(c3ccc(CCC(F)(F)C(F)(F)F)cn3)CC2)CCN(c2ccccc2)CC1 [Example A167]	> 10000	3.04	2.21	1.54	> 10000	
O=C(NO)C1(S(=O)(=O)N2CCC(c3ccc(CCC(F)(F)C(F)(F)F)cn3)CC2)CCNCC1 [Example A170]	> 10000	4.21	4.01	1.55	> 10000	
O=C(NO)C1(S(=O)(=O)N2CCN(c3ccc(-c4cccs4)cn3)CC2)CCOCC1 [Example A187]	936	0.54	2.14	0.56	1240	
O=C(NO)C1(S(=O)(=O)N2CCC(CCCCCCCC(F)(F)F)CC2)CCOCC1 [Example A52, 4-[4-(8,8,8-trifluoro-octyl)-piperidine-1-sulfonyl]-tetrahydro-pyran-4-carboxylic Acid Hydroxyamide]						Ki (MMP-1; Table 8, read-out: MMP-1 Ki): 3930 nM; Ki (MMP-2; Table 8, read-out: MMP-2 Ki): 0.55 nM; Ki (MMP-9; Table 8, read-out: MMP-9 Ki): 1.03 nM; Ki (MMP-13; Table 8, read-out: MMP-13 Ki): 0.23 nM; Ki (MMP-14; Table 8, read-out: MMP-14 Ki): 922 nM
CC(C)CCc1cnc(C2CCN(S(=O)(=O)C3(C(=O)NO)CCOCC3)CC2)cn1 [Example A117]	> 10000	9.91	0.96	2.8	> 10000	
O=C(NO)C1(S(=O)(=O)N2CCC(c3cnc(OCC(F)(F)C(F)F)cn3)CC2)CCOCC1 [Example A206]	4460	0.71	0.84	0.9	5750	
CCCCC=CCCOC1CCN(S(=O)(=O)C2(C(=O)NO)CCOCC2)CC1 [Example A36C]						Ki (MMP-1; Table 8, read-out: MMP-1 Ki): > 10000 nM; Ki (MMP-2; Table 8, read-out: MMP-2 Ki): 3.93 nM; Ki (MMP-9; Table 8, read-out: MMP-9 Ki): 3.41 nM; Ki (MMP-13; Table 8, read-out: MMP-13 Ki): 1.22 nM; Ki (MMP-14; Table 8, read-out: MMP-14 Ki): 1900 nM

More lines, main results first:

Ki (MMP-1; [2]) [nM]	Ki (MMP-2; [3]) [nM]	Ki (MMP-9; [4]) [nM]	Ki (MMP-13; [5]) [nM]	Ki (MMP-14; [6]) [nM]	Compound	other results
3910	237	1100	2.01	> 10000	O=C(CCCCC1CCN(S(=O)(=O)C2(C(=O)NO)CCOCC2)CC1)N1CCCCC1 [Example A92]	
6200	1100	5910	6.79	> 10000	CC(C)CN(C)C(=O)/C=C/C=C/C1CCN(S(=O)(=O)C2(C(=O)NO)CCOCC2)CC1 [Example A77]	
854	0.07	1.37	0.09	591	O=C(NO)C1(S(=O)(=O)N2CCN(c3ccc(-c4nnn(CC5CC5)n4)cc3)CC2)CCOCC1 [Example A175]	

From patent US20050209278A1, “Piperidinyl- and piperazinyl-sulfonylmethyl hydroxamic acids and their use as protease inhibitors” (priority 2002, published 2005)
